Experimental data published in ChEMBL document CHEMBL3507680, “University of Dundee, Gates Library screen for HepG2 cell viability”.

Assay: Human HepG2 cell viability assay in 384 well format
Assay type: toxicity, cell-based
Parameters: dose 125 nL, time 70.5 hour; cytotoxicity at 70.5 h: concentration not given beside the values
Details: HepG2 cells, read-out: Inhibition

Going from `Cc1ccc(CN2CCC[C@]3(C(=O)O)CN(CC4CC4)C[C@@H]3C2)s1` to `c1csc(CN2CCC3(CC2)CCN(CC2CC2)CC3)n1`, the cytotoxicity at 70.5 h rises from -6.54% to 14.9%.

Compared with `CS(=O)(=O)N1CCOCC12CCN(Cc1ccoc1)CC2`, `Cc1cc(=O)[nH]c(-c2cccc(CN3CCCN4CCCC4C3)c2)n1` (stereo not drawn) is lower in cytotoxicity at 70.5 h: -5.63% for the first, -5.83% for the second.

Going from `c1ccc(OCCCN2CCN(c3ccc4nncn4n3)CC2)cc1` to `c1ccc(-n2cc(CNCC3CCCN3c3cccnn3)cn2)cc1` (stereo not drawn), the cytotoxicity at 70.5 h falls from 2.05% to -5.35%.

Going from `Cn1ccc(C(=O)NCC2(O)CCN(c3cnccn3)C2)n1` (stereo not drawn) to `CCN(Cc1ccncc1)C(=O)c1cn(CC2CCCNC2)nn1` (stereo not drawn), the cytotoxicity at 70.5 h falls from -1.53% to -17.4%.

First: Cn1cc2c(n1)C(CNCC1CCOCC1)OCC2 (stereo not drawn)
Second: CCN(CC1CCOC1)C(=O)Nc1ccc(N2CCCCC2)nc1 (stereo not drawn)
The cytotoxicity at 70.5 h of the first is higher: 4.92% for the first, -1.47% for the second.

Compared with `Cc1ccc(S(=O)(=O)CCC(=O)NCc2nnc3n2CCC3)cc1`, `Cc1cnn(CC2CN(CCS(=O)(=O)C(F)(F)F)CCO2)c1` (stereo not drawn) is higher in cytotoxicity at 70.5 h: -3.09% for the first, 23.8% for the second.

First: CCc1nc2n(n1)CC(NCC1=Cc3ccc(OC)cc3OC1)CC2 (stereo not drawn)
Second: COc1ccc(-c2c[nH]c(C3CC(=O)N(CC(C)C)C3)n2)cc1 (stereo not drawn)
The cytotoxicity at 70.5 h of the first is higher: 2.24% for the first, -7.11% for the second.

Compared with `c1ccc(Cc2noc(CN3CCCC3Cn3cccn3)n2)cc1` (stereo not drawn), `CCN(Cc1nc(Cc2ccccc2)no1)C1CC1` is higher in cytotoxicity at 70.5 h: -7.45% for the first, -4.11% for the second.

Going from `CCOCCn1nc(C)cc1C(=O)N1CCOCC(CO)C1` (stereo not drawn) to `Cc1cc(C)n(CC2CN(CC(=O)NC3(C#N)CCCC3)CCO2)n1` (stereo not drawn), the cytotoxicity at 70.5 h falls from 12% to -3.7%.

Going from `CC(C)C(O)CNC(=O)CCCc1ccccn1` (stereo not drawn) to `Cc1ccccc1CN(Cc1ccccn1)C(=O)CNS(C)(=O)=O`, the cytotoxicity at 70.5 h rises from 2.25% to 25.2%.

First: COCC(=O)N1CCN(C(=O)c2scnc2C)CC1
Second: O=C(CO)N1CCN(S(=O)(=O)CCCF)CC1
The cytotoxicity at 70.5 h of the first is lower: -11.5% for the first, 3.01% for the second.

Compared with `CC(NC(=O)CSCC#N)c1cccc(NC(=O)c2ccccc2)c1` (stereo not drawn), `CC(C)CC(=O)Nc1cccc(CNCc2cccs2)c1` is lower in cytotoxicity at 70.5 h: 10.4% for the first, -3.67% for the second.

Going from `CCc1ncc(CN2CCN(CCOC)CC2)cn1` to `CCn1ccnc1CN1CCN(C(C)C(=O)N2CCCCCC2)CC1` (stereo not drawn), the cytotoxicity at 70.5 h falls from 7.17% to -1.03%.

First: Nc1nc(N2CCCCCC2)ncc1C(=O)NCc1ccc(F)c(Cl)c1
Second: CC(CNC(=O)c1ccc(Cl)cc1I)N1CCCC1 (stereo not drawn)
The cytotoxicity at 70.5 h of the first is lower: -10.8% for the first, -8.19% for the second.

Compared with `O=C(CC1NC(N2CCc3ccccc3C2)=NC1=O)Nc1ccccc1` (stereo not drawn), `O=C1CC(c2ccc(C(=O)O)cc2)c2ncn(-c3cccc(F)c3)c2N1` (stereo not drawn) is lower in cytotoxicity at 70.5 h: -5.52% for the first, -24.3% for the second.

Compared with `CCN(CCn1cccn1)C(=O)CN1C(=O)OC[C@@H]1C(C)C`, `Cc1nc2cc(CNC(=O)C3CC(=O)N(CCN(C)C)C3)ccc2n1C` (stereo not drawn) is higher in cytotoxicity at 70.5 h: -3.13% for the first, -2.99% for the second.

Compared with `Cn1nccc1CN1CCOC(c2ccc(-c3cncnc3)cn2)C1` (stereo not drawn), `COc1ccc(-c2noc(CN3CCOCC3C)n2)cc1OC` (stereo not drawn) is lower in cytotoxicity at 70.5 h: -6.28% for the first, -10.5% for the second.

Compared with `CSc1c(CC(=O)O)n(C)c2ccccc12`, `COc1ccccc1-n1c(O)cc(C)c(C#N)c1=O` is lower in cytotoxicity at 70.5 h: -0.594% for the first, -1.09% for the second.

First: O=C(CC1CC1)N[C@@H]1CN(Cc2nccs2)C[C@@H]2CCCO[C@@H]21
Second: Cc1cc(-c2cnn(CCNC(=O)C3CC3)c2C2CC2)on1
The cytotoxicity at 70.5 h of the first is lower: -2.11% for the first, 27% for the second.

Going from `c1csc(N2CCCN(c3nccn4cnnc34)CC2)n1` to `N#Cc1nccnc1N1CCC(Cc2ccccc2)C1` (stereo not drawn), the cytotoxicity at 70.5 h falls from 3.4% to -3.44%.

Going from `CN(C)c1ncc2c(n1)CCCC2NC(=O)C1CC1` (stereo not drawn) to `Cc1nc(CN2CCCC(N(C)Cc3cnc(C)s3)C2)no1` (stereo not drawn), the cytotoxicity at 70.5 h rises from -11.8% to -1.22%.

First: CCc1nc(CN(C)CC(c2cccs2)N2CCOCC2)no1 (stereo not drawn)
Second: Cc1csc(C2CCCN(C(=O)c3cccc4c3OCO4)C2)n1 (stereo not drawn)
The cytotoxicity at 70.5 h of the first is higher: 18.8% for the first, -4.7% for the second.

Going from `Cc1nn(-c2ccccn2)c(C)c1[C@@H]1C=C[C@@H](NC(=O)NC(C)C)C1` to `CCn1c(Nc2ccccc2OC)nc2c(C)nn(C)c2c1=O`, the cytotoxicity at 70.5 h rises from 0.445% to 14%.

Going from `CCN(CC)c1nc2sc(C(=O)NCC(=O)OC)cc2s1` to `CCC(CNC(=O)Cc1cc(C)on1)Oc1cccc(F)c1` (stereo not drawn), the cytotoxicity at 70.5 h falls from 19.9% to 0.445%.

Going from `Cc1cc(C[S+]([O-])Cc2ccccc2F)on1` (stereo not drawn) to `Cc1cnn(C2CN(CC(=O)N(C)Cc3ccc(C)o3)C2)c1`, the cytotoxicity at 70.5 h rises from -8.66% to 39.8%.

Going from `Cc1cc2n(n1)CC(CNC1CCN(c3ccc(F)cc3)CC1)CN2` (stereo not drawn) to `CC(C)Oc1cccc(F)c1C(C(=O)O)N1CCCN(C)CC1` (stereo not drawn), the cytotoxicity at 70.5 h rises from -5.25% to 26.8%.

Compared with `N#Cc1cc(S(N)(=O)=O)ccc1NC1CCc2c(F)cccc21` (stereo not drawn), `Fc1ccc(-c2noc(C3COCCO3)n2)cc1F` (stereo not drawn) is higher in cytotoxicity at 70.5 h: -10.4% for the first, -1.66% for the second.

First: COc1ccc2c(c1)CN(C)C(=O)CCN2CC(O)C(F)(F)F (stereo not drawn)
Second: Cc1cc(N2CCCC2c2cc(Nc3cnccn3)nc(C)n2)ncn1 (stereo not drawn)
The cytotoxicity at 70.5 h of the first is higher: 11.9% for the first, -11.4% for the second.

Going from `CC(C)c1nccn1C(C)C(=O)NC1CCOCC1` (stereo not drawn) to `Cn1nc(Cn2cccc2)c2c1CN(Cc1ccsc1)C2`, the cytotoxicity at 70.5 h falls from 2.76% to -9.77%.
